What all share (test): relative viability (nuclei count vs DMSO), 5 days (fraction); higher = more cells survive
Compound in assay [1]: Cc1ccc(Nc2nccc(N(C)c3ccc4c(C)n(C)nc4c3)n2)cc1S(N)(=O)=O [Pazopanib] + Nc1ncn([C@H]2C[C@H](O)[C@@H](CO)O2)c(=O)n1 [Decitabine] (partner 2 µM)
The procedure, abridged:
(§1)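 Relative viability was taken as the ratio of nuclei in treated wells to nuclei in vehicle wells. Lung cancer cell lines in 1536-well plates received compounds by pin tool one day after seeding, either one drug alone or a fixed anchor-drug dose plus five library-drug doses (not always all listed) in √10 steps. Nuclei were counted on 4× images after 5 days of treatment, and values are medians of duplicate plates.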

Compound in assay [2]: Cc1ccc(Nc2nccc(N(C)c3ccc4c(C)n(C)nc4c3)n2)cc1S(N)(=O)=O [Pazopanib] + Cc1nc(Nc2ncc(C(=O)Nc3c(C)cccc3Cl)s2)cc(N2CCN(CCO)CC2)n1 [Dasatinib] (partner 0.075 µM)
The procedure, abridged: as §1

Compound in assay [3]: Cc1ccc(Nc2nccc(N(C)c3ccc4c(C)n(C)nc4c3)n2)cc1S(N)(=O)=O [Pazopanib] + O=C(CCCCCCC(=O)Nc1ccccc1)NO [Vorinostat] (partner 1 µM)
The procedure, abridged: as §1

Compound in assay [4]: Cc1ccc(C(=O)Nc2ccc(CN3CCN(C)CC3)c(C(F)(F)F)c2)cc1C#Cc1cnc2cccnn12 [Ponatinib] + O=C(CCCCCCC(=O)Nc1ccccc1)NO [Vorinostat] (partner 1 µM)
The procedure, abridged:
as §1

Consider 8 cell lines from the supplement of paper PMC10307832.

Turning to NCI-H1915, the relative viability in assay [1] (first compound 0.01 µM) is 0.244; in assay [1] (first compound 0.03162 µM), 0.264; in assay [1] (first compound 0.1 µM), 0.263; in assay [1] (first compound 0.3162 µM), 0.261; in assay [1] (first compound 1 µM), 0.291; in assay [2] (first compound 0.01 µM) it was 0.253. Also, the relative viability was 0.319 in assay [2] (first compound 0.03162 µM); 0.321 in assay [2] (first compound 0.1 µM); 0.318 in assay [2] (first compound 0.3162 µM); 0.402 in assay [2] (first compound 1 µM); 0.385 in assay [3] (first compound 0.01 µM); 0.481 in assay [3] (first compound 0.03162 µM). Also, the relative viability was 0.513 in assay [3] (first compound 0.1 µM); 0.525 in assay [3] (first compound 0.3162 µM); 0.455 in assay [3] (first compound 1 µM); 0.457 in assay [4] (first compound 0.002 µM); 0.49 in assay [4] (first compound 0.006325 µM); 0.469 in assay [4] (first compound 0.06325 µM). Moreover, the relative viability in assay [4] (first compound 0.2 µM) is 0.491.
Take NCI-H3122: the relative viability in assay [1] (first compound 0.01 µM) stood at 0.516; in assay [1] (first compound 0.03162 µM) it was 0.407; in assay [1] (first compound 0.1 µM), 0.474; in assay [1] (first compound 0.3162 µM), 0.449; in assay [1] (first compound 1 µM) it was 0.459; in assay [2] (first compound 0.01 µM) it was 0.815. In addition, the relative viability in assay [2] (first compound 0.03162 µM) was found to be 0.895; in assay [2] (first compound 0.1 µM), 0.756; in assay [2] (first compound 0.3162 µM), 0.785; in assay [2] (first compound 1 µM), 0.5; in assay [3] (first compound 0.01 µM), 0.794; in assay [3] (first compound 0.03162 µM), 0.926. The relative viability in assay [3] (first compound 0.1 µM) turned out to be 0.89; in assay [3] (first compound 0.3162 µM) it was 1.02; in assay [3] (first compound 1 µM), 1.05; in assay [4] (first compound 0.002 µM), 0.936; in assay [4] (first compound 0.006325 µM), 1.07; in assay [4] (first compound 0.06325 µM), 0.994. Besides, the relative viability in assay [4] (first compound 0.2 µM) worked out at 1.05.
As for NCI-H441, the relative viability in assay [1] (first compound 0.01 µM) was 0.239; in assay [1] (first compound 0.03162 µM), 0.272; in assay [1] (first compound 0.1 µM) it was 0.229; in assay [1] (first compound 0.3162 µM), 0.257; in assay [1] (first compound 1 µM) it was 0.252; in assay [2] (first compound 0.01 µM), 0.451. Besides, the relative viability was found to be 0.612 in assay [2] (first compound 0.03162 µM); 0.643 in assay [2] (first compound 0.1 µM); 0.565 in assay [2] (first compound 0.3162 µM); 0.658 in assay [2] (first compound 1 µM); 0.736 in assay [3] (first compound 0.01 µM); 1.06 in assay [3] (first compound 0.03162 µM). Also, the relative viability in assay [3] (first compound 0.1 µM) was found to be 0.865; in assay [3] (first compound 0.3162 µM), 0.838; in assay [3] (first compound 1 µM), 0.645; in assay [4] (first compound 0.002 µM) it was 0.647; in assay [4] (first compound 0.006325 µM) it was 0.675; in assay [4] (first compound 0.06325 µM), 0.822. Also, the relative viability in assay [4] (first compound 0.2 µM) was determined as 0.757.
On to NCI-H358, for which the relative viability in assay [1] (first compound 0.01 µM) was 0.217; in assay [1] (first compound 0.03162 µM), 0.22; in assay [1] (first compound 0.1 µM), 0.219; in assay [1] (first compound 0.3162 µM) it was 0.25; in assay [1] (first compound 1 µM), 0.276; in assay [2] (first compound 0.01 µM), 0.157. Besides, the relative viability in assay [2] (first compound 0.03162 µM) worked out at 0.152; in assay [2] (first compound 0.1 µM), 0.158; in assay [2] (first compound 1 µM) it was 0.258; in assay [3] (first compound 0.01 µM), 0.752; in assay [3] (first compound 0.03162 µM) it was 0.656; in assay [3] (first compound 0.1 µM) it was 0.782. Further, the relative viability in assay [3] (first compound 0.3162 µM) stood at 0.728; in assay [3] (first compound 1 µM) it was 0.694; in assay [4] (first compound 0.002 µM), 0.644; in assay [4] (first compound 0.006325 µM), 0.634; in assay [4] (first compound 0.06325 µM), 0.669; in assay [4] (first compound 0.2 µM) it was 0.551.
For the cell line NCI-H522, the relative viability in assay [1] (first compound 0.01 µM) came to 0.658; in assay [1] (first compound 0.03162 µM), 0.666; in assay [1] (first compound 0.1 µM), 0.817; in assay [1] (first compound 0.3162 µM), 0.73; in assay [1] (first compound 1 µM) it was 0.673; in assay [2] (first compound 0.01 µM) it was 0.614. Moreover, the relative viability amounted to 0.865 in assay [2] (first compound 0.03162 µM); 0.968 in assay [2] (first compound 0.1 µM); 0.897 in assay [2] (first compound 0.3162 µM); 0.918 in assay [2] (first compound 1 µM); 0.603 in assay [3] (first compound 0.01 µM); 0.874 in assay [3] (first compound 0.03162 µM). In addition, the relative viability in assay [3] (first compound 0.1 µM) was determined as 0.851; in assay [3] (first compound 0.3162 µM) it was 0.922; in assay [3] (first compound 1 µM), 1.02; in assay [4] (first compound 0.002 µM), 0.853; in assay [4] (first compound 0.006325 µM), 0.964; in assay [4] (first compound 0.06325 µM), 0.95. In assay [4] (first compound 0.2 µM), the relative viability was determined as 0.928.
In the case of NCI-H1793, the relative viability in assay [1] (first compound 0.03162 µM) worked out at 0.516; in assay [1] (first compound 0.1 µM), 0.488; in assay [1] (first compound 0.3162 µM), 0.506; in assay [1] (first compound 1 µM) it was 0.627; in assay [2] (first compound 0.03162 µM) it was 0.357; in assay [2] (first compound 0.1 µM), 0.412. For the same cell line, the relative viability is 0.372 in assay [2] (first compound 0.3162 µM); 0.533 in assay [2] (first compound 1 µM); 0.753 in assay [3] (first compound 0.03162 µM); 0.637 in assay [3] (first compound 0.1 µM); 0.811 in assay [3] (first compound 0.3162 µM); 1.11 in assay [3] (first compound 1 µM). Moreover, the relative viability in assay [4] (first compound 0.002 µM) turned out to be 0.678; in assay [4] (first compound 0.006325 µM), 0.701; in assay [4] (first compound 0.06325 µM), 0.846; in assay [4] (first compound 0.2 µM) it was 0.686.
For SK-MES-1, the relative viability was 0.338 in assay [1] (first compound 0.01 µM); 0.359 in assay [1] (first compound 0.03162 µM); 0.369 in assay [1] (first compound 0.1 µM); 0.416 in assay [1] (first compound 0.3162 µM); 0.55 in assay [1] (first compound 1 µM); 0.361 in assay [2] (first compound 0.01 µM). In addition, the relative viability in assay [2] (first compound 0.03162 µM) is 0.34; in assay [2] (first compound 0.1 µM) it was 0.414; in assay [2] (first compound 0.3162 µM), 0.474; in assay [2] (first compound 1 µM) it was 0.383; in assay [3] (first compound 0.01 µM), 1.03; in assay [3] (first compound 0.03162 µM) it was 0.989. The relative viability in assay [3] (first compound 0.1 µM) was found to be 1.27; in assay [3] (first compound 0.3162 µM), 1.09; in assay [3] (first compound 1 µM), 1.07; in assay [4] (first compound 0.002 µM), 0.999; in assay [4] (first compound 0.006325 µM) it was 1.08; in assay [4] (first compound 0.06325 µM), 1.36. The relative viability in assay [4] (first compound 0.2 µM) is 1.08.
With PC-14, the relative viability in assay [1] (first compound 0.01 µM) was 0.186; in assay [1] (first compound 0.03162 µM) it was 0.221; in assay [1] (first compound 0.1 µM), 0.245; in assay [1] (first compound 0.3162 µM), 0.226; in assay [1] (first compound 1 µM), 0.305; in assay [2] (first compound 0.01 µM) it was 0.27. Also, the relative viability in assay [2] (first compound 0.03162 µM) is 0.241; in assay [2] (first compound 0.1 µM), 0.288; in assay [2] (first compound 0.3162 µM), 0.267; in assay [2] (first compound 1 µM), 0.266; in assay [3] (first compound 0.01 µM) it was 0.81; in assay [3] (first compound 0.03162 µM) it was 0.87. Further, the relative viability amounted to 0.669 in assay [3] (first compound 0.1 µM); 0.786 in assay [3] (first compound 0.3162 µM); 0.751 in assay [3] (first compound 1 µM); 0.68 in assay [4] (first compound 0.002 µM); 0.668 in assay [4] (first compound 0.006325 µM); 0.9 in assay [4] (first compound 0.06325 µM). Moreover, the relative viability in assay [4] (first compound 0.2 µM) amounted to 0.647.
